Holding throughout (experiment): NCI anticancer screen, dose series, 48 h
The test system of test [1] is COLO 205 colon.
Test [2] relates to DU-145 prostate.
The test system of test [3] is NCI/ADR-RES ovarian.
Test [4] deals with NCI-H522 lung.
For test [5], the system named is A549 NSCLC.
The test system of test [6] is SR leukemia.
The test system of test [7] is IGROV1 ovarian.
Test [8] deals with CCRF-CEM leukemia.
For test [9], the system named is HCT-15 colon.
Test [10] deals with SK-MEL-5 melanoma.

This note sets out measurements from PubChem BioAssay (NCI).

Where “and” joins values, the source holds several entries; their conditions need not be identical. Equal entries are not always repeated.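 Interpolation was linear, between the two tested concentrations surrounding the appropriate level; five concentrations were tested over 48 hours in 96-well plates. The concentration for 50% growth inhibition is given as GI50. TGI is the concentration that stops growth completely.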

In the case of `O=C(Oc1ccc([N+](=O)[O-])cc1)N1CCN(Cc2cccc(Oc3ccccc3)c2)CC1`, the GI50 is greater than 83.5 µM in [1]; greater than 100 µM in test [2]; greater than 100 µM in test [3]; greater than 50.9 µM in [4]; greater than 73.6 µM in test [5]; 22.5 µM in [6]. The GI50 in [7] was greater than 100 µM; in test [8], 40.5 µM; in test [9], greater than 100 µM; in test [10], 18.5 µM. Besides, the TGI in test [1], in test [2], in test [3], in test [4], in test [5] and in [6] was greater than 100 µM throughout. In addition, the TGI in test [7] is greater than 100 µM; in test [8], greater than 100 µM; in test [9], greater than 100 µM; in test [10], 58.7 µM.
For the molecule `COc1cc2c3c(n(CCN)c(=O)c2cc1OC)-c1cc2c(cc1C3=O)OCO2`, the GI50 is 0.8 µM in test [1]; 0.0401 µM in test [2]; 0.152 µM in test [3]; 0.771 µM in test [4]; 0.506 µM in test [5]; 1.56 µM in test [6]. The GI50 in test [7] is 1.53 µM; in [8] it was less than 0.01 µM; in test [9] it was 0.471 µM; in test [10], less than 0.01 µM. Moreover, the TGI in test [1] was 4.4 µM; in test [2], 1.13 µM; in test [3], 0.808 µM; in [4], 6.57 µM; in test [5] it was greater than 23.7 µM; in test [6] it was greater than 100 µM. Further, the values for the TGI in [7] and in [10] were 4.74 µM and 0.0975 µM, respectively.
As for `Cn1ccc(=Nc2ccc(NC(=O)c3ccc(N=c4ccn(C)c5ccc([N+](=O)[O-])cc45)cc3)cc2)cc1`, the GI50 in test [1] was 3.94 µM; in [2], 4.43 µM; in [3], greater than 100 µM; in test [4], 6.88 µM; in test [5] it was 7.31 µM; in test [6] it was 33 µM. The GI50 was 11.2 µM in test [7], greater than 100 µM in test [8], greater than 100 µM in [9] and 20.3 µM in [10]. Further, the TGI in test [1], in [2], in test [3], in test [4], in test [5] and in test [6] was greater than 100 µM in each case. The TGI in test [7], in [8], in test [9] and in test [10] was greater than 100 µM in each case.
On to `Cc1cc(O)c2c(c1)C(=O)c1cc(O)cc(O)c1C2=O`, for which the TGI was 42 µM in [1]; greater than 100 µM in test [2]; greater than 100 µM in [3]; greater than 66.3 µM in [4]; greater than 100 µM in test [5]; 68 µM in test [6]. Moreover, the TGI in [7] was greater than 100 µM; in test [8], greater than 100 µM; in test [9] it was greater than 80.2 µM; in test [10] it was 24.4 µM. Moreover, the GI50 in test [2] is 46.2 µM; in test [3] it was 36.8 µM; in [7] it was 65.2 µM.
As to `Cc1cc(S(=O)(=O)Nc2nc3ccsc3c(=O)n2Cc2ccco2)c(S)cc1Cl`, the GI50 was greater than 100 µM in test [1]; greater than 100 µM in test [2]; greater than 100 µM in test [3]; greater than 100 µM in test [4]; greater than 100 µM in [5]; 9.95 µM in test [6]. In addition, the GI50 was greater than 100 µM in [7], 50.7 µM in [8], greater than 100 µM in test [9] and 42.9 µM in test [10]. Also, the TGI in [1] is greater than 100 µM; in [2], greater than 100 µM; in test [3], greater than 100 µM; in test [4], greater than 100 µM; in [5], greater than 100 µM; in test [6], 29.7 µM. Moreover, the TGI in test [7], in test [8], in [9] and in test [10] was greater than 100 µM in each case.
As to `N#C/C(=C/C=C(\Cl)c1ccc(Cl)cc1)C(N)=O`, the GI50 was 5.24 µM in test [1]; 3.31 µM in test [2]; 2.67 µM in test [3]; greater than 22.7 µM in test [4]; 7.54 µM in test [5]; 2.26 µM in test [6]. Moreover, the GI50 in test [7] is greater than 20 µM; in test [8], 2.81 µM; in test [9], 2.79 µM; in test [10] it was 4.56 µM. Further, the TGI in test [1] was greater than 55.8 µM; in test [2] it was 12.5 µM; in test [3] it was 7.43 µM; in test [4], greater than 62.2 µM; in [5], 15.4 µM; in test [6], 20.4 µM. Also, the TGI in test [7] is greater than 100 µM; in test [8], greater than 100 µM; in test [9], greater than 32.5 µM; in test [10], 15.1 µM.
For `N#Cc1c[nH]n2ccnc12`, the TGI in [1], in test [2], in test [3], in test [4], in test [5] and in [6] was greater than 100 µM throughout. Further, the TGI in [7], in test [8], in [9] and in test [10] was greater than 100 µM in each case.
As to `O=C1/C(=C/c2ccccc2)SC(=Nc2ccccc2)N1Nc1ccccc1`, the GI50 in test [1] was 20.3 µM; in [2], 32.2 µM; in [3], 18.1 µM; in test [4], 15.5 µM; in test [5] it was 12 µM; in [6], 21.3 µM. In addition, the GI50 was 12.7 µM in test [7], 4.07 µM in [8], 5.1 µM in test [9] and 14.4 µM in test [10]. The TGI in test [1] was greater than 100 µM; in test [2], greater than 100 µM; in [3], greater than 100 µM; in [4] it was 84.8 µM; in [5], greater than 100 µM; in test [6], greater than 100 µM. Further, the TGI in test [7] was greater than 100 µM; in [8], greater than 100 µM; in test [9], greater than 100 µM; in [10], 28.8 µM.
For the molecule `COc1ccc(/C=C(/C(=O)N2CCCC2)c2cc(OC)c(OC)c(OC)c2)cc1N`, the GI50 in test [1] is 3.06 µM; in [2], 2.65 µM; in test [3] it was 4.21 µM; in test [4], 2.34 µM; in test [5] it was 4.14 µM; in [6], 0.719 µM. In addition, the GI50 was 3.93 µM in test [7], 3.19 µM in test [8], 2.28 µM in test [9] and 2.51 µM in test [10]. Besides, the TGI in [1] was 11 µM; in test [2], greater than 100 µM; in test [3], 63.9 µM; in test [4], greater than 100 µM; in test [5] it was greater than 100 µM; in test [6] it was greater than 100 µM. The TGI in [7], in test [8], in test [9] and in [10] was greater than 100 µM each time.
For `Nc1nc2ccc([C@@H]3Nc4ccc5[nH]ncc5c4[C@H]4[C@H]5CCC(C5)[C@H]43)cc2s1`, the GI50 was 1.08 µM in test [1]; 1.63 µM in test [2]; 0.966 µM in test [3]; 1.38 µM in test [4]; 0.994 µM in test [5]; 0.336 µM in test [6]. Moreover, the GI50 is 1 µM in test [7], 0.507 µM in [8], 0.505 µM in [9] and 1.66 µM in test [10]. Also, the TGI turned out to be 2.92 µM in [1]; 5.78 µM in test [2]; 4 µM in [3]; 3.4 µM in test [4]; 3.98 µM in test [5]; 2.72 µM in test [6]. Moreover, the TGI worked out at 9.84 µM in test [7], 19 µM in [8], 2.64 µM in [9] and 13 µM in test [10].
As to `COc1ccc(C2NCCc3c2[nH]c2ccccc32)cc1CN1CCN(c2ccc(F)cc2)CC1` (stereo not given), the GI50 in test [1] is 1.93 µM; in test [2], 2.76 µM; in [3] it was 2.27 µM; in [4], 1.93 µM; in test [5], 2.9 µM; in test [6] it was 1.78 µM. Besides, the GI50 in test [7] is 2.5 µM; in test [8], 2.8 µM; in test [9] it was 1.61 µM; in test [10], 1.63 µM. Also, the TGI in test [1] is 3.65 µM; in test [2], 7.81 µM; in test [3] it was 5.89 µM; in [4], 3.73 µM; in test [5], 9.29 µM; in test [6] it was 5.28 µM. In addition, the TGI in [7] was 6.29 µM; in test [8], 7.19 µM; in [9] it was 3.06 µM; in test [10] it was 3.01 µM.
As to `O=C1C=CC(=O)C1(Br)Br`, the TGI was 24.1 µM in [1]; 39 µM in test [2]; 68.3 µM in [3]; 14.4 µM in [4]; 31.7 µM in [5]; 29.5 µM in [6]. For the same molecule, the TGI in [7] is 13.7 µM; in [8], 26.6 µM; in test [9], 17.3 µM; in test [10], 34 µM.
Turning to `Cc1ccc(S(=O)(=O)Oc2ccc3c4c(c(=O)oc3c2)CCCCC4)cc1`, the GI50 was 4.05 µM in test [1]; greater than 100 µM in test [2]; 6.76 µM in test [3]; greater than 100 µM in test [4]; greater than 100 µM in test [5]; 3.3 µM in [6]. Besides, the GI50 in [7] was greater than 100 µM; in test [8] it was 5.18 µM; in test [9], 3.66 µM; in [10], 2.75 µM. Also, the TGI in [1], in test [2], in [3], in test [4], in test [5] and in [6] was greater than 100 µM each time. Besides, the TGI in [7], in test [8], in [9] and in test [10] was greater than 100 µM in each case.
Take `CC[C@@]1(O)C(=O)OCc2c1cc1n(c2=O)Cc2cc3cc(OC)ccc3nc2-1`: the GI50 is 0.419 µM and 0.143 µM in test [1]; 0.0219 µM in [2]; 0.0204 µM in test [3]; 0.0672 µM and 0.0109 µM in [5]; 0.00461 µM in test [6]; 0.00232 µM in test [8]. The GI50 in test [9] is 0.223 µM. Moreover, the TGI in test [2] is 0.041 µM; in test [3], 0.169 µM; in [4], 0.437 µM and 1.99 µM; in test [5] it was 2.92 µM; in test [7] it was 0.945 µM; in test [9], 8.12 µM. Further, in test [10], the TGI was 0.116 µM and 0.0278 µM.
As to `CCCCCCCCOc1ccc(/C=N/Nc2cc(C)nc3ccc(Cl)cc23)cc1`, the GI50 in test [1] is 1.82 µM; in [2] it was 1.76 µM; in [3] it was 1.97 µM; in test [4], 1.89 µM; in [5] it was 1.7 µM; in test [6], 1.61 µM. Moreover, the GI50 in [7] is 1.84 µM; in [8] it was 2.04 µM; in test [9], 1.85 µM; in test [10] it was 1.73 µM. Besides, the TGI in [1] was determined as 3.56 µM; in [2], 3.32 µM; in test [3] it was 4.07 µM; in [4], 3.86 µM; in [5] it was 3.52 µM; in test [6], 7.12 µM. In addition, the TGI came to 3.67 µM in test [7], 5.28 µM in test [8], 3.38 µM in test [9] and 3.16 µM in test [10].
For the molecule `COc1cc2c3c(n(CCCN)c(=O)c2cc1OC)-c1ccc(F)cc1C3=O`, the GI50 in test [1] is 1.79 µM; in [2], 0.788 µM; in test [3] it was 10.6 µM; in test [4], 2.35 µM; in [5], 4.94 µM; in test [6], 0.118 µM. The GI50 is 1.82 µM in [7], 0.17 µM in [8], 2.24 µM in [9] and 1.29 µM in test [10]. In addition, the TGI in [1] amounted to 5.4 µM; in test [2] it was 2.03 µM; in [3] it was 25.2 µM; in test [4], 20.3 µM; in [5], 21.4 µM; in test [6], 1.14 µM. Moreover, the TGI in test [7] was 7.68 µM; in [8] it was 0.987 µM; in test [9], 6.89 µM; in test [10], 6.06 µM.
